Measurements as given in US8492346B2, “Methods of use of epsilon inhibitor compounds for the attenuation of pain” (KAI Pharmaceuticals, Inc., priority 2007, dated 2013).
Where no end group is shown, it is not given here.

How the values were obtained:
[1] = Plasma stability in human sera; assay type: in vitro ADME; conditions: plasma; human sera, 30 minutes
Method: (§1) The plasma and chemical stability of various cargo/carrier peptide constructs described in Example 1 was tested. Plasma stability of the compounds was tested using both human and rat sera and the amount of starting material was determined after 30 minutes of treatment. Chemical stability was evaluated by determining the amount of starting material remaining after 9 days of treatment.
(§2) The plasma stability of various cargo/carrier peptide constructs described in Example 1 was tested using both human and rat sera and the amount of starting material was determined over time to 30 minutes of treatment. The time course data for cargo/carrier peptides KP-1586, KP-1630, and KP-1631 is shown in FIG. 3, the data for peptides KP-1632, KP-1633, and KP-1634 is shown in FIG. 4, and the data for peptides KP-1635, KP-1636, and KP-1637 is shown in FIG. 5.

[2] = Plasma stability in rat sera; assay type: in vitro ADME; conditions: 30 minutes
Method: as §1, §2

[3] = Chemical stability of cargo/carrier peptide constructs; assay type: physicochemical
Method: as §1
The chemical stability of various cargo/carrier peptide constructs described in Example 1 was tested by examining the relative concentration of the peptides over a time period of more than 200 hours at 37° C.

[4] = system: carrageenan-induced mechanical hyperalgesia; assay: Carrageenan inflammatory pain model, Randall-Selitto paw-withdrawal test; assay type: in vivo, rat
Method: (§3) The nociceptive flexior reflex was quantified on lightly restrained rats by using a Basile Analgesymeter (Randall-Selitto test). Inflammatory hyperlagesia was induced by injection of Carr (1%, 5 uL, i.d.), which was injected unilaterally to the dorsum of the hindpaw one-hour prior to compound administration. The εPKC inhibitor peptide (εV1-2) was injected via systemic routes.
as §3, with “μL,” for “uL,”, “one-hr” for “one-hour”
The rat carrageenan model has been extensively used to evaluate the response to modulators of inflammatory pain. In the model used for the studies described below, a single 5 microL injection of a 1% solution of carrageenan into the plantar surface of the right hindpaw was used to elicit an inflammatory response resulting in local edema and mechanical hyperalgesia. The mechanical hyperalgesia was quantitated as previously described using measurements of the nociceptive flexion reflex (Randall-Selitto paw-withdrawal test) in response to mechanical painful stimulation at the site of carrageenan injection. […] In the absence of further treatment, the PWT remained stable at ˜55 g for several hours, making it possible to use this model to evaluate the time-course of the response to treatment over the course of at least six hours after the establishment of the disease state.

CC(=O)N[C@@H](CSSC[C@H](N)C(=O)N[C@@H](CCC(=O)O)C(=O)N[C@@H](C)C(=O)N[C@H](C(=O)N[C@@H](CO)C(=O)N[C@@H](CC(C)C)C(=O)N[C@@H](CCCCN)C(=O)N1CCC[C@H]1C(=O)N[C@H](C(=O)O)[C@@H](C)O)C(C)C)C(=O)N[C@@H](Cc1ccc(O)cc1)C(=O)NCC(=O)N[C@@H](CCCNC(=N)N)C(=O)N[C@@H](CCCCN)C(=O)N[C@@H](CCCCN)C(=O)N[C@@H](CCCNC(=N)N)C(=O)N[C@@H](CCCNC(=N)N)C(=O)N[C@@H](CCC(N)=O)C(=O)N[C@@H](CCCNC(=N)N)C(=O)N[C@@H](CCCNC(=N)N)C(=O)N[C@@H](CCCNC(=N)N)C(N)=O [KP-1586, C-E-A-V-S-L-K-P-T]
remaining at 0.5 h [1]: 85% | remaining at 0.5 h [2]: 77% | remaining at 216 h ([3]; 9 days of treatment): 57%

CC(=O)N[C@@H](CCSSC[C@H](NC(C)=O)C(=O)N[C@@H](CCC(=O)O)C(=O)N[C@@H](C)C(=O)N[C@H](C(=O)N[C@@H](CO)C(=O)N[C@@H](CC(C)C)C(=O)N[C@@H](CCCCN)C(=O)N1CCC[C@H]1C(=O)N[C@H](C(N)=O)[C@@H](C)O)C(C)C)C(=O)N[C@@H](Cc1ccc(O)cc1)C(=O)NCC(=O)N[C@@H](CCCNC(=N)N)C(=O)N[C@@H](CCCCN)C(=O)N[C@@H](CCCCN)C(=O)N[C@@H](CCCNC(=N)N)C(=O)N[C@@H](CCCNC(=N)N)C(=O)N[C@@H](CCC(N)=O)C(=O)N[C@@H](CCCNC(=N)N)C(=O)N[C@@H](CCCNC(=N)N)C(=O)N[C@@H](CCCNC(=N)N)C(=O)O [KP-1637, Ac-C-E-A-V-S-L-K-P-T-NH2]
remaining at 0.5 h [1]: 60% | remaining at 0.5 h [2]: 78% | Chemical Stability % Remaining at 9 days ([3]; 9 days of treatment): 100% | Chemical stability, time course of relative concentration ([3]; more than 200 hours at 37° C., FIG. 6): marked stability

CC(=O)N[C@@H](CSSC[C@H](NC(C)=O)C(=O)N[C@@H](CC(C)C)C(=O)N[C@@H](CCCCN)C(=O)N1CCC[C@H]1C(=O)N[C@H](C(=O)N[C@@H](C)C(=O)N[C@@H](Cc1c[nH]c2ccccc12)C(=O)N[C@@H](CO)C(=O)N[C@@H](CC(C)C)C(=O)N[C@@H](CCCNC(=N)N)C(N)=O)[C@@H](C)O)C(=O)N[C@@H](Cc1ccc(O)cc1)C(=O)NCC(=O)N[C@@H](CCCNC(=N)N)C(=O)N[C@@H](CCCCN)C(=O)N[C@@H](CCCCN)C(=O)N[C@@H](CCCNC(=N)N)C(=O)N[C@@H](CCCNC(=N)N)C(=O)N[C@@H](CCC(N)=O)C(=O)N[C@@H](CCCNC(=N)N)C(=O)N[C@@H](CCCNC(=N)N)C(=O)N[C@@H](CCCNC(=N)N)C(N)=O [KP-1631, Ac-C-L-K-P-T-A-W-S-L-R-NH2]
remaining at 0.5 h [1]: 49% | remaining at 0.5 h [2]: 67% | remaining at 216 h ([3]; 9 days of treatment): 76%

CC(=O)N[C@@H](CCSSCC[C@H](NC(C)=O)C(=O)N[C@@H](CCC(=O)O)C(=O)N[C@@H](C)C(=O)N[C@H](C(=O)N[C@@H](CO)C(=O)N[C@@H](CC(C)C)C(=O)N[C@@H](CCCCN)C(=O)N1CCC[C@H]1C(=O)N[C@H](C(N)=O)[C@@H](C)O)C(C)C)C(=O)N[C@@H](Cc1ccc(O)cc1)C(=O)NCC(=O)N[C@@H](CCCNC(=N)N)C(=O)N[C@@H](CCCCN)C(=O)N[C@@H](CCCCN)C(=O)N[C@@H](CCCNC(=N)N)C(=O)N[C@@H](CCCNC(=N)N)C(=O)N[C@@H](CCC(N)=O)C(=O)N[C@@H](CCCNC(=N)N)C(=O)N[C@@H](CCCNC(=N)N)C(=O)N[C@@H](CCCNC(=N)N)C(=O)O [KP-1638, Ac-hC-E-A-V-S-L-K-P-T-NH2]
remaining at 216 h ([3]; 9 days of treatment): 100%

CC(=O)N[C@@H](CSSC[C@H](NC(C)=O)C(=O)N[C@@H](CCC(=O)O)C(=O)N[C@@H](C)C(=O)N[C@H](C(=O)N[C@@H](CO)C(=O)N[C@@H](CC(C)C)C(=O)N[C@@H](CCCCN)C(=O)N1CCC[C@H]1C(=O)N[C@H](C(=O)N[C@@H](C)C(=O)N[C@@H](Cc1c[nH]c2ccccc12)C(=O)N[C@@H](CO)C(=O)N[C@@H](CC(C)C)C(=O)N[C@@H](CCCNC(=N)N)C(=O)O)[C@@H](C)O)C(C)C)C(=O)N[C@@H](Cc1ccc(O)cc1)C(=O)NCC(=O)N[C@@H](CCCNC(=N)N)C(=O)N[C@@H](CCCCN)C(=O)N[C@@H](CCCCN)C(=O)N[C@@H](CCCNC(=N)N)C(=O)N[C@@H](CCCNC(=N)N)C(=O)N[C@@H](CCC(N)=O)C(=O)N[C@@H](CCCNC(=N)N)C(=O)N[C@@H](CCCNC(=N)N)C(=O)N[C@@H](CCCNC(=N)N)C(N)=O [KP-1632, Ac-C-E-A-V-S-L-K-P-T-A-W-S-L-R]
remaining at 0.5 h [1]: 54% | remaining at 0.5 h [2]: 61% | remaining at 216 h ([3]; 9 days of treatment): 89%

CC(=O)N[C@@H](CCC(=O)O)C(=O)N[C@@H](C)C(=O)N[C@H](C(=O)N[C@@H](CO)C(=O)N[C@@H](CC(C)C)C(=O)N[C@@H](CCCCN)C(=O)N1CCC[C@H]1C(=O)N[C@H](C(=O)NCC(=O)NCC(=O)NCCCC[C@H](NC(=O)CNC(=O)CNC(=O)[C@@H](NC(=O)[C@@H]1CCCN1C(=O)[C@H](CCCCN)NC(=O)[C@H](CC(C)C)NC(=O)[C@H](CO)NC(=O)[C@@H](NC(=O)[C@H](C)NC(=O)[C@H](CCC(=O)O)NC(C)=O)C(C)C)[C@@H](C)O)C(=O)N[C@@H](CSSC[C@H](NC(C)=O)C(=O)N[C@@H](Cc1ccc(O)cc1)C(=O)NCC(=O)N[C@@H](CCCNC(=N)N)C(=O)N[C@@H](CCCCN)C(=O)N[C@@H](CCCCN)C(=O)N[C@@H](CCCNC(=N)N)C(=O)N[C@@H](CCCNC(=N)N)C(=O)N[C@@H](CCC(N)=O)C(=O)N[C@@H](CCCNC(=N)N)C(=O)N[C@@H](CCCNC(=N)N)C(=O)N[C@@H](CCCNC(=N)N)C(N)=O)C(=O)O)[C@@H](C)O)C(C)C [KP-1634, [Ac-E-A-V-S-L-K-P-T-G-G]-K-C]
remaining at 0.5 h [1]: 87% | remaining at 0.5 h [2]: 106% | remaining at 216 h ([3]; 9 days of treatment): 82%

CC(C)C[C@H](NC(=O)[C@H](CO)NC(=O)[C@@H](NC(=O)[C@H](C)NC(=O)[C@H](CCC(=O)O)NC(=O)[C@@H](N)CSSC[C@H](N)C(=O)N[C@@H](Cc1ccc(O)cc1)C(=O)NCC(=O)N[C@@H](CCCNC(=N)N)C(=O)N[C@@H](CCCCN)C(=O)N[C@@H](CCCCN)C(=O)N[C@@H](CCCNC(=N)N)C(=O)N[C@@H](CCCNC(=N)N)C(=O)N[C@@H](CCC(N)=O)C(=O)N[C@@H](CCCNC(=N)N)C(=O)N[C@@H](CCCNC(=N)N)C(=O)N[C@@H](CCCNC(=N)N)C(=O)O)C(C)C)C(=O)N[C@@H](CCCCN)C(=O)N1CCC[C@H]1C(=O)N[C@H](C(=O)O)[C@@H](C)O [KP-1636, C-E-A-V-S-L-K-P-T, reference compound]
remaining at 0.5 h [1]: 79% | remaining at 0.5 h [2]: 79% | remaining at 216 h ([3]; 9 days of treatment): 27%

E-A-V-S-L-K-P-T (EAVSLKPT) [εV1-2]
Anti-hyperalgesic effect after surgical sympathectomy ([4]; bilateral lumbar sympathectomy plus suprarenal ganglionectomy 7 days before): completely abolished anti-hyperalgesic effects | Paw-withdrawal threshold (PWT) ([4]; intradermal and subcutaneous injection, FIG. 14): Increases in paw-withdrawal threshold (PWT) | Carr-induced mechanical hyperalgesia ([4]; subcutaneous injection, ipsilateral or contralateral hindlimb or dorsal trunk): dose-dependently suppressed Carr-induced mechanical hyperalgesia | Carr-induced mechanical hyperalgesia after nerve transection ([4]; subcutaneous, distal to transection of sciatic and saphenous nerves, contralateral paw): no longer suppression of Carr-induced mechanical hyperalgesia

COc1ccc2c(c1)c(CC(=O)O)c(C)n2C(=O)c1ccc(Cl)cc1 [indomethacin, reference compound]
Carrageenan-induced mechanical hyperalgesia ([4]; oral, 10 mg/kg, after end of 5-hr IV infusion of KAI-1678): completely reversed the mechanical hyperalgesia

CC(=O)N[C@@H](CSSC[C@@H](NC(=O)[C@@H](CCC(=O)O)NC(=O)[C@@H](C)NC(=O)[C@H](NC(=O)[C@@H](CO)NC(=O)[C@@H](CC(C)C)NC(=O)[C@@H](CCCCN)NC(=O)[C@H]1CCCN1C(=O)[C@H](N)[C@H](C)O)C(C)C)C(=O)O)C(=O)N[C@@H](Cc1ccc(O)cc1)C(=O)NCC(=O)N[C@@H](CCCNC(=N)N)C(=O)N[C@@H](CCCCN)C(=O)N[C@@H](CCCCN)C(=O)N[C@@H](CCCNC(=N)N)C(=O)N[C@@H](CCCNC(=N)N)C(=O)N[C@@H](CCC(N)=O)C(=O)N[C@@H](CCCNC(=N)N)C(=O)N[C@@H](CCCNC(=N)N)C(=O)N[C@@H](CCCNC(=N)N)C(N)=O [KP-1635, t-p-k-l-s-v-a-e-c]
remaining at 0.5 h [1]: 63% | remaining at 0.5 h [2]: 72% | remaining at 216 h ([3]; 9 days of treatment): 95%

EAVSLKPTGGYGRKKRRQRRR-NH2 [KP-1633, E-A-V-S-L-K-P-T-G-G-TaT-NH2]
remaining at 0.5 h [1]: 83% | remaining at 0.5 h [2]: 77% | remaining at 216 h ([3]; 9 days of treatment): 99%
